Data as given in US20240408096A1, “DOSING REGIMENS FOR ORAL ALK2 KINASE INHIBITORS” (BioCryst Pharmaceuticals, Inc., priority 2020, published 2024).

Key:
[1] = molecular target: T1, cytochrome P450 (CYP)1A2 (Homo sapiens, UniProt P05177); experiment: CYP inhibition in vitro; format: in vitro ADME
T1 sequence (P05177 1-516): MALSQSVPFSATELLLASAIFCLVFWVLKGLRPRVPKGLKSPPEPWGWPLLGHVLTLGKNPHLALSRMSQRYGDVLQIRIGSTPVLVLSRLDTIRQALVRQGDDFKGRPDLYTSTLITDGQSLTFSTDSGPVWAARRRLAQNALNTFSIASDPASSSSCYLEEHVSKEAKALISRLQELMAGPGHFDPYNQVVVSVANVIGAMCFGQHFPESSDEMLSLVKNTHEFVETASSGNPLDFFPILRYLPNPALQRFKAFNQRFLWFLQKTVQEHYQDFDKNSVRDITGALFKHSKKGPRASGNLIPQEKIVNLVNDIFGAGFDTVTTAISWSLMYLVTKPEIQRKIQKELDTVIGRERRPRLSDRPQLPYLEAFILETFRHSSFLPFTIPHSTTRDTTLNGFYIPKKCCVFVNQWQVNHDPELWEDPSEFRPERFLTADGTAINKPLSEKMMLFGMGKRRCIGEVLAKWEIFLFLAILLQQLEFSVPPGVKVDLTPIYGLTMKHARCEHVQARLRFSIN

[2] = molecular target: T2, CYP2B6 (Homo sapiens, UniProt P20813); experiment: CYP inhibition in vitro; format: in vitro ADME
T2 sequence (P20813 1-491): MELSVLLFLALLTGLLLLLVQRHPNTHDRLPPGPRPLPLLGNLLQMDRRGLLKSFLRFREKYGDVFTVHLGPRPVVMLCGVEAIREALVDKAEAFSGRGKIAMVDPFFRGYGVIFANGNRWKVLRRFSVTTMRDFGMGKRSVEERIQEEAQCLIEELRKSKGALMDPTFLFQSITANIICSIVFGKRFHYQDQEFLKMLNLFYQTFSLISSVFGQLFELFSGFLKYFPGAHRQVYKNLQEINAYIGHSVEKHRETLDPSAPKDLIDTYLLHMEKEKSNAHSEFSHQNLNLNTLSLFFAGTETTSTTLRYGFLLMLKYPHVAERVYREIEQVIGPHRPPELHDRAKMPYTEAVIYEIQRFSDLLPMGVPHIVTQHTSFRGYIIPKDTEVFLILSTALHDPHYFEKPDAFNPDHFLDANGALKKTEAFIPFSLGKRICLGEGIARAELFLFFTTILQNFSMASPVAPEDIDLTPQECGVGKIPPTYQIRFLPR

[3] = Phase 1 Part 1 (SAD) urinary PK; format: in vivo, human; conditions: for CLR,0-6 / CLR,6-12 / CLR,12-24 / Cum % excreted0-72 / CumAe0-72 / CLR,24-48: Part 1 SAD, geometric mean (CV%); for CumAe0-72: urine 0 to 72 hours
Description: Four sequential SAD cohorts were dosed.
Urine samples were collected according to the schedule in Tables 4 and 5 for Parts 1 and 2, respectively. The pre-dose sample on Day 1 was collected any time in the 2 hours prior to dosing. A 30-minute window was allowed around collection intervals.

[4] = metabolism by liver S9 fraction; format: in vitro ADME; conditions: animal and human liver S9 fraction
[5] = nonclinical PK / toxicokinetic assessments; format: in vivo
[6] = molecular target: T3, ALK2(R206H) (Homo sapiens, UniProt Q04771, R206H); experiment: ALK2(R206H) functional assays; format: biochemical; conditions: several functional assays; read-out: ALK2(R206H) activity potency (IC50)
T3 sequence (Q04771 21-509 R206H): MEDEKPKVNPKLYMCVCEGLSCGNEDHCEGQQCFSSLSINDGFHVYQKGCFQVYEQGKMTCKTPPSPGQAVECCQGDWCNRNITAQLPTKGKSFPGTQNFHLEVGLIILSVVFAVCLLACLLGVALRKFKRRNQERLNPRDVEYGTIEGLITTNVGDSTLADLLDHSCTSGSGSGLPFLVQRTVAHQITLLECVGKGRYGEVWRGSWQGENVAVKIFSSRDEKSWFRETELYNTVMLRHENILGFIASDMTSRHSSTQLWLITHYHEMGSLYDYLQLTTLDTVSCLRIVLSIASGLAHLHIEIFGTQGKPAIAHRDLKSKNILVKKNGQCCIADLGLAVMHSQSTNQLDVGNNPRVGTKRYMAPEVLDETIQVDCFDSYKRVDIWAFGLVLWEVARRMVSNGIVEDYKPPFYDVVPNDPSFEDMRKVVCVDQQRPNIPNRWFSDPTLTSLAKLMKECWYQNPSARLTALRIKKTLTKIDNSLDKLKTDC

[7] = system: CYP3A; experiment: CYP inhibition in vitro; format: in vitro ADME

Compound: COc1cc(-n2cnc(Nc3nc(N4CCC[C@H]4C(N)=O)nc4sccc34)c2)cc(OC)c1OC.O=C(O)CC(O)(CC(=O)O)C(=O)O [Compound A]
- CYP1A2 inhibition [1]: not an inhibitor
- CYP2B6 inhibition [2]: not an inhibitor
- cumulative amount of parent compound excreted in the urine ([3]; Part 1, single doses 5 to 25 mg, all cohorts): less than 0.3 % of the administered dose
- CLR,0-6 ([3]; 5 mg): 23.63 (28.3) mL/h
- CLR,6-12 ([3]; 5 mg): 14.61 (92.8) mL/h
- CLR,12-24 ([3]; 5 mg): 8.576 (263,3) mL/h
- Cum % excreted0-72 ([3]; 5 mg): 0.2668 (43.6) %
- CumAe0-72 ([3]; 5 mg): 13,340 (43.6) ng
- CLR,0-6 ([3]; 10 mg): 9.499 (79.6) mL/h
- CLR,6-12 ([3]; 10 mg): 6.137 (93.2) mL/h
- CLR,12-24 ([3]; 10 mg): 4.759 (56,5) mL/h
- Cum % excreted0-72 ([3]; 10 mg): 0.1206 (84.0) %
- CumAe0-72 ([3]; 10 mg): 12,060 (84.0) ng
- CLR,0-6 ([3]; 15 mg fasted): 12.84 (56.2) mL/h
- CLR,6-12 ([3]; 15 mg fasted): 6.793 (98.8) mL/h
- CLR,12-24 ([3]; 15 mg fasted): 8.008 (114.1) mL/h
- CLR,24-48 ([3]; 15 mg fasted): 7.674 (80.2) mL/h
- Cum % excreted0-72 ([3]; 15 mg fasted): 0.1409 (79.5) %
- CumAe0-72 ([3]; 15 mg fasted): 21,130 (79.5) ng
- CLR,0-6 ([3]; 25 mg): 15.98 (99.4) mL/h
- CLR,6-12 ([3]; 25 mg): 10.56 (138.2) mL/h
- CLR,12-24 ([3]; 25 mg): 9.785 (145.0) mL/h
- CLR,24-48 ([3]; 25 mg): 10.44 (87.9) mL/h
- Cum % excreted0-72 ([3]; 25 mg): 0.1928 (87.0) %
- CumAe0-72 ([3]; 25 mg): 48,210 (87.0) ng
- metabolism / human-specific metabolites [4]: metabolized by animal and human liver S9 fraction with no apparent human-specific metabolites
- oral bioavailability ([5]; nonclinical PK studies): orally bioavailable
- accumulation with repeated dosing ([5]; repeated dosing up to 28 days, toxicokinetic assessments): do not accumulate
- IC50 [6]: < 100 nM
- CYP3A inhibition [7]: not an inhibitor
